Source: ChEMBL document CHEMBL5614419, “Discovery of novel BCL6-Targeting PROTACs with effective antitumor activities against DLBCL in vitro and in vivo” (Eur J Med Chem, 2024)
The source made the active and inactive calls. The calls are words filed in the database; no cut-off is given here.

Key:
[1] = system: SUD4; assay: Upregulation of CDKN1A mRNA level in human SU-DHL-4 cells at 10 uM incubated for 48 hrs by RT-qPCR analysis; format: functional, cell-based
[2] = system: SUD4; assay: Upregulation of p27 protein level in human SU-DHL-4 cells at 5 uM preincubated for 48 hrs followed by compound elution and measured after 72 hrs by Western blot analysis; format: functional, cell-based
[3] = AUC (0 to t) in male Sprague-Dawley rat at 20 mg/kg, po measured upto 24 hrs by LC-MS/MS analysis; format: ADME, organism-based; details: in vivo
[4] = system: OCI-Ly1; assay: Antiproliferative activity against BCL6-dependent human OCI-Ly1 cells assessed as inhibition in cell growth measured after 6 days by MTT assay; details: OCI-Ly1, 144 h
[5] = system: DOHH-2; assay: Synergistic antiproliferative activity against human DOHH-2 cells assessed as combination index measured after 6 days in presence of Ibrutinib by MTT assay; format: functional; details: time 6 day
[6] = system: SU-DHL-6; assay: Antiproliferative activity against BCL6-dependent human SU-DHL-6 cells assessed as inhibition in cell growth measured after 6 days by MTT assay; details: SU-DHL-6, 144 h
[7] = MRT (0 to t) in male Sprague-Dawley rat at 20 mg/kg, po measured upto 24 hrs by LC-MS/MS analysis; format: ADME, organism-based; details: in vivo
[8] = system: SUD4; assay: Upregulation of p21 protein level in human SU-DHL-4 cells at 5 uM preincubated for 48 hrs followed by compound elution and measured after 72 hrs by Western blot analysis; format: functional, cell-based
[9] = target: T1, Protein cereblon/B-cell lymphoma 6 protein (Homo sapiens, UniProt Q96SW2+P41182); assay: In vivo PROTAC activity at CRBN/BCL6 in female nude nu/nu mouse model xenografted with human SU-DHL-4 cells assessed as downregulation of BCL6 protein level in tumor at 40 mg/kg, ip measured after 5 hrs of last dose by Western blot analysis; format: functional, organism-based; details: SUD4
[10] = system: WI-38 VA13; assay: (§1) Cytotoxicity against human WI-38 VA13 cells assessed as inhibition in cell growth measured after 6 days by MTT assay; format: toxicity, cell-based; details: wi-38 va13, 144 h, time 6 day
[11] = as §1; format: toxicity, cell-based; details: WI-38 VA13 cells
[12] = target: T1, Protein cereblon/B-cell lymphoma 6 protein; assay: PROTAC activity at CRBN/BCL6 in BCL6-dependent human SU-DHL-4 cells assessed as induction of BCL6 degradation by measuring degradation rate at 1 uM incubated for 48 hrs by Western blot analysis relative to control; format: cell-based
[13] = system: SUD4; assay: Upregulation of p21 protein level in human SU-DHL-4 cells incubated for 48 hrs by Western blot analysis; format: functional, cell-based; details: dose 0.1-10 µM
[14] = target: T1, Protein cereblon/B-cell lymphoma 6 protein; assay: PROTAC activity at CRBN/BCL6 in human SU-DHL-4 cells assessed as induction of BCL6 degradation at 5 uM preincubated with MG-132 for 2 hrs followed by compound addition and measured after 36 hrs by Western blot analysis; format: cell-based
[15] = target: T1, Protein cereblon/B-cell lymphoma 6 protein; assay: In vivo PROTAC activity at CRBN/BCL6 in female nude nu/nu mouse model xenografted with human SU-DHL-4 cells assessed as increase in p27 protein level in tumor at 40 mg/kg, ip measured after 5 hrs of last dose by Western blot analysis; format: functional, organism-based; details: SUD4
[16] = system: DOHH-2; assay: Induction of cell cycle arrest in human DOHH-2 cells assessed as G1 phase arrest at 500 nM in presence of Ibrutinib incubated for 72 hrs by flow cytometry; format: functional, cell-based
[17] = target: T1, Protein cereblon/B-cell lymphoma 6 protein; assay: PROTAC activity at CRBN/BCL6 in human DOHH-2 cells assessed as induction of BCL6 degradation by measuring maximal efficacy incubated for 48 hrs by Western blot analysis relative to control; format: cell-based
[18] = system: SUD4; assay: Upregulation of p27 protein level in human SU-DHL-4 cells incubated for 48 hrs by Western blot analysis; format: functional, cell-based; details: dose 0.1-10 µM
[19] = system: SUD4; assay: Antiproliferative activity against BCL6-dependent human SU-DHL-4 cells assessed as inhibition of cell growth at 1 uM measured after 6 days by MTT assay relative to control; format: functional; details: SU-DHL-4, 144 h, time 6 day
[20] = system: SUD4; assay: Upregulation of p27 protein level in human SU-DHL-4 cells at 5 uM by Western blot analysis; format: functional, cell-based; details: time 12-72 hrs, TDE = time-dependent effect
[21] = system: SUD4; assay: Induction of apoptosis in human SU-DHL-4 cells at 10 uM; format: functional, cell-based
[22] = Half life in male Sprague-Dawley rat at 20 mg/kg, po measured upto 24 hrs by LC-MS/MS analysis; format: ADME, organism-based; details: in vivo
[23] = system: DOHH-2; assay: Antiproliferative activity against BCL6-dependent human DOHH-2 cells assessed as inhibition in cell growth measured after 6 days by MTS assay; details: DOHH-2, 144 h

T1 sequence (Q96SW2 whole entry, looked up, other chains not shown): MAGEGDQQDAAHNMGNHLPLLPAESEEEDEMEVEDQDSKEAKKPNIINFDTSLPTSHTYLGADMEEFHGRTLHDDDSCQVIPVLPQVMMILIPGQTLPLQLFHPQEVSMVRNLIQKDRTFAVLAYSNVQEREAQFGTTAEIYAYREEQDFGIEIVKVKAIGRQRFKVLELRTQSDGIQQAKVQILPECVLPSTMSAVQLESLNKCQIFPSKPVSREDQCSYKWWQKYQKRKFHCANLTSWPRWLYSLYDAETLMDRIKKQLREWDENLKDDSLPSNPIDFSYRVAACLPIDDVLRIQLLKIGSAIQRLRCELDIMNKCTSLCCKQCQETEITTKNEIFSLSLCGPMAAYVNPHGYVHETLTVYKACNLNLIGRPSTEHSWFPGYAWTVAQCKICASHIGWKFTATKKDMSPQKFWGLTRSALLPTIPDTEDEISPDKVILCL

Compound: COc1cc(Nc2nc(N3CCN(CCOCCNc4cccc5c4C(=O)N(C4CCC(=O)NC4=O)C5=O)CC3)ncc2F)ccc1NC(=O)c1ccc(C2=CCCC2)s1 (stereo not drawn)
- Activity [1]: Active
- Activity [2]: Active
- AUC(0-t) at 24 h [3]: 2.29 µg·h/mL
- IC50 [4]: 1.37 µM
- CI [5]: 0.2
- IC50 [6]: 0.451 µM
- MRT last at 24 h [7]: 2.48 h
- Activity [8]: Active
- Activity [9]: Active
- Activity [10]: Dose-Dependent Effect
- IC50 at 6 days [11]: > 10 µM
- Activity [12]: 81.8%
- Activity [13]: Dose-Dependent Effect
- Activity [14]: inactive
- Activity [15]: Active
- Activity [16]: Active
- Emax [17]: 93.7%
- Activity [18]: Dose-Dependent Effect
- inhibition at 1 µM [19]: 66.1%
- Activity [20]: Tde
- Activity [21]: inactive
- half-life [22]: 1.06 h
- IC50 [23]: 0.0562 µM
